From patent US12600717B2, “Tricyclic compounds as inhibitors of KRAS” (Incyte Corporation, priority 2021, dated 2026)
pIC50: −log10 of the molar value.

Legend:
[1] = target: KRAS G12V (Homo sapiens, UniProt P01116, G12V); assay: GDP-GTP exchange assay (bodipy-GDP/GppNHp, SOS1), KRAS G12V; type: biochemical; conditions: bodipy-loaded KRAS G12V 2.5 nM, 3 hours incubation after adding GppNHp-SOS1; read-out: G12V_exchange IC50
Experimental: (§1) The inhibitor potency of the exemplified compounds was determined in a fluorescence based guanine nucleotide exchange assay, which measures the exchange of bodipy-GDP (fluorescently labeled GDP) for GppNHp (Non-hydrolyzable GTP analog) to generate the active state of KRAS in the presence of SOS1 (guanine nucleotide exchange factor). Inhibitors were serially diluted in DMSO and a volume of 0.1 μL was transferred to the wells of a black low volume 384-well plate. 5 μL/well volume of bodipy-loaded KRAS G12D diluted to 2.5 nM in assay buffer (25 mM Hepes pH 7.5, 50 mM NaCl, 10 mM MgCl2 and 0.01% Brij-35) was added to the plate and pre-incubated with inhibitor for 4 hours at ambient temperature. Appropriate controls (enzyme with no inhibitor or with a G12D inhibitor) were included on the plate. The exchange was initiated by the addition of a 5 μL/well volume containing 1 mM GppNHp and 300 nM SOS1 in assay buffer. The 10 μL/well reaction concentration of the bodipy-loaded KRAS G12D, GppNHp, and SOS1 were 2.5 nM, 500 uM, and 150 nM, respectively. The reaction plates were incubated at ambient temperature for 2 hours, a time estimated for complete GDP-GTP exchange in the absence of inhibitor. For the KRAS G12V mutant, similar guanine nucleotide exchange assays were used with 2.5 nM as final concentration for the bodipy loaded KRAS proteins and 3 hours incubation after adding GppNHp-SOS1 mixture. A cyclic peptide described to selectively bind G12D mutant (Sakamoto et al., BBRC 484.3 (2017), 605-611) or internal compounds with confirmed binding were used as positive controls in the assay plates. Fluorescence intensities were measured on a PheraStar plate reader instrument (BMG Labtech) with excitation at 485 nm and emission at 520 nm.
(§2) Either GraphPad prism or Genedata Screener SmartFit was used to analyze the data. The IC50 values were derived by fitting the data to a four parameter logistic equation producing a sigmoidal dose-response curve with a variable Hill coefficient.
(§3) The symbol “†” indicates IC50≤100 nM, “††” indicates IC50>100 nM but ≤1 μM; and “†††” indicates IC50 is >1 μM but ≤5 μM, “††††” indicates IC50 is >5 μM but ≤10 μM. “NA” indicates IC50 not available.

[2] = target: KRAS G12D (Homo sapiens, UniProt P01116, G12D); assay: GDP-GTP exchange assay (bodipy-GDP/GppNHp, SOS1), KRAS G12D; type: biochemical; conditions: bodipy-loaded KRAS G12D 2.5 nM, 4 hours pre-incubation with inhibitor, 2 hours after GppNHp/SOS1; read-out: G12D_exchange IC50
Sequence of KRAS G12D (P01116 1-188 isoform P01116-2 G12D): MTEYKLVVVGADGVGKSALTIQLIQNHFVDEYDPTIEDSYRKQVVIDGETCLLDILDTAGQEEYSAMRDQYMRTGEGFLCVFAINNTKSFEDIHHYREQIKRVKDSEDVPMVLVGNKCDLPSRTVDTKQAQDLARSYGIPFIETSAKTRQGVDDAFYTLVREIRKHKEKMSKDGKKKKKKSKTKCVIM
Experimental: as §1, §2, §3

Sequence of KRAS G12V (P01116 1-188 isoform P01116-2 G12V): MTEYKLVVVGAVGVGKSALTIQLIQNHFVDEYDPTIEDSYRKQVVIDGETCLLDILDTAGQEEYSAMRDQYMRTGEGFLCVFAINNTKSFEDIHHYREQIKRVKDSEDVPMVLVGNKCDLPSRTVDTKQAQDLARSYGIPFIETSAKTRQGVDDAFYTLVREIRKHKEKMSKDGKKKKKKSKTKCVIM

Structure (SMILES): CN(C)C1CN(c2nc3c(F)c(-c4cc(O)cc5ccccc45)c(CCC#N)cc3c3c2nc(-c2ccc4[nH]ncc4c2)n3C2C3CNC2C3)C1 (single isomer, unassigned) [Example 38a]
- pIC50 [1]: ≥ 7.00
- pIC50 [2]: 6.00 to 7.00

Structure (SMILES): CCc1nc2c(-c3ccc(C(=O)NC)nc3)nc3c(F)c(-c4cc(O)cc5ccccc45)c(CCC#N)cc3c2n1C1C2CNC1C2 (single isomer, unassigned) [Example 19a, 5-(1-((endo)-2-Azabicyclo[2.1.1]hexan-5-yl)-8-(2-cyanoethyl)-2-ethyl-6-fluoro-7-(3-hydroxynaphthalen-1-yl)-1H-imidazo[4,5-c]quinolin-4-yl)-N-methylpicolinamide]
- pIC50 [1]: ≥ 7.00
- pIC50 [2]: ≥ 7.00

Structure (SMILES): CCc1nc2c(-c3ccn4ncnc4c3)nc3c(F)c(-c4cc(O)cc5ccccc45)c(CCC#N)cc3c2n1C1C2CNC1C2 (single isomer, unassigned) [Example 21a, 3-(4-([1,2,4]Triazolo[1,5-a]pyridin-7-yl)-1-((endo)-2-azabicyclo[2.1.1]hexan-5-yl)-2-ethyl-6-fluoro-7-(3-hydroxynaphthalen-1-yl)-1H-imidazo[4,5-c]quinolin-8-yl)propanenitrile]
- pIC50 [1]: ≥ 7.00
- pIC50 [2]: ≥ 7.00

Structure (SMILES): CN(C)C(=O)CCc1nc2c(N3CC(N(C)C)C3)nc3c(F)c(-c4c(O)ccc(Cl)c4Cl)c(CCC#N)cc3c2n1C1C2CNC1C2 (stereo not shown) [Example 10, 3-(1-(2-azabicyclo[2.1.1]hexan-5-yl)-8-(2-cyanoethyl)-7-(2,3-dichloro-6-hydroxyphenyl)-4-(3-(dimethylamino)azetidin-1-yl)-6-fluoro-1H-imidazo[4,5-c]quinolin-2-yl)-N,N-dimethylpropanamide]
- pIC50 [1]: 6.00 to 7.00
- pIC50 [2]: ≥ 7.00

Structure (SMILES): CC(=O)N1CC[C@H](n2c(=O)[nH]c3c(O[C@@H](C)[C@@H]4CCCN4C)nc4c(F)c(-c5cccc6cccc(C#N)c56)c(Cl)cc4c32)C[C@H]1CC#N [Example 45, 8-(1-((2S,4S)-1-acetyl-2-(cyanomethyl)piperidin-4-yl)-8-chloro-6-fluoro-4-((S)-1-((S)-1-methylpyrrolidin-2-yl)ethoxy)-2-oxo-2,3-dihydro-1H-imidazo[4,5-c]quinolin-7-yl)-1-naphthonitrile]
- pIC50 [1]: ≥ 7.00
- pIC50 [2]: 6.00 to 7.00

Structure (SMILES): Cc1cc2c(nc(N3CC(N(C)C)C3)c3nc(CCC(=O)N4CCN(c5ncccn5)CC4)n(C4C5CNC4C5)c32)c(F)c1-c1cc(O)cc2ccccc12 (single isomer, unassigned) [Example 2a, 3-(1-((endo)-2-azabicyclo[2.1.1]hexan-5-yl)-4-(3-(dimethylamino)azetidin-1-yl)-6-fluoro-7-(3-hydroxynaphthalen-1-yl)-8-methyl-1H-imidazo[4,5-c]quinolin-2-yl)-1-(4-(pyrimidin-2-yl)piperazin-1-yl)propan-1-one]
- pIC50 [1]: 5.30 to 6.00
- pIC50 [2]: ≥ 7.00

Structure (SMILES): CCn1ccc(-c2nc3c(N4CC(N(C)C)C4)nc4c(F)c(-c5cc(O)cc6ccccc56)c(CCC#N)cc4c3n2C2C3CNC2C3)n1 (single isomer, unassigned) [Example 35a, 3-(1-((endo)-2-azabicyclo[2.1.1]hexan-5-yl)-4-(3-(dimethylamino)azetidin-1-yl)-2-(1-ethyl-1H-pyrazol-3-yl)-6-fluoro-7-(3-hydroxynaphthalen-1-yl)-1H-imidazo[4,5-c]quinolin-8-yl)propanenitrile]
- pIC50 [1]: ≥ 7.00
- pIC50 [2]: ≥ 7.00

Structure (SMILES): CN(C)C(=O)CCc1nc2c(N3CC(N(C)C)C3)nc3c(-c4cnn(-c5ccccn5)c4)c(-c4cc(O)cc5ccccc45)c(CCC#N)cc3c2n1C1C2CNC1C2 (stereo not drawn) [Example 13, 3-(1-((endo)-2-azabicyclo[2.1.1]hexan-5-yl)-8-(2-cyanoethyl)-4-(3-(dimethylamino)azetidin-1-yl)-7-(3-hydroxynaphthalen-1-yl)-6-(1-(pyridin-2-yl)-1H-pyrazol-4-yl)-1H-imidazo[4,5-c]quinolin-2-yl)-N,N-dimethylpropanamide]
- pIC50 [1]: 5.00 to 5.30
- pIC50 [2]: 6.00 to 7.00

Structure (SMILES): CN1CCC[C@H]1COc1nc2c(F)c(-c3cc(O)cc4ccccc34)c(CCC#N)cc2c2c1nc(-c1cn(C3CCC3)nn1)n2C1C2CNC1C2 (single isomer, unassigned) [Example 27a]
- pIC50 [1]: ≥ 7.00
- pIC50 [2]: ≥ 7.00

Structure (SMILES): CNCCc1nc2c(N3CC(N(C)C)C3)nc3c(F)c(-c4cc(O)cc5ccccc45)c(Cc4ccc(C#N)cc4)cc3c2n1[C@@H]1[C@@H]2CN[C@H]1C2 (relative stereo) [Example 29, 4-((1-((endo)-2-azabicyclo[2.1.1]hexan-5-yl)-4-(3-(dimethylamino)azetidin-1-yl)-6-fluoro-7-(3-hydroxynaphthalen-1-yl)-2-(2-(methylamino)ethyl)-1H-imidazo[4,5-c]quinolin-8-yl)methyl)benzonitrile]
- pIC50 [1]: 5.00 to 5.30
- pIC50 [2]: 6.00 to 7.00

Structure (SMILES): CN(C)C(=O)CCc1nc2c(N3CC(N(C)C)C3)nc3c(F)c(-c4cccc5c4CC(F)(F)CC5)c(CCC#N)cc3c2n1[C@@H]1[C@@H]2CN[C@H]1C2 (relative stereo) [Example 33, 3-(1-endo-(2-azabicyclo[2.1.1]hexan-5-yl)-8-(2-cyanoethyl)-7-(7,7-difluoro-5,6,7,8-tetrahydronaphthalen-1-yl)-4-(3-(dimethylamino)azetidin-1-yl)-6-fluoro-1H-imidazo[4,5-c]quinolin-2-yl)-N,N-dimethylpropanamide]
- pIC50 [1]: 5.30 to 6.00
- pIC50 [2]: ≥ 7.00

Structure (SMILES): C[C@H](Oc1nc2c(F)c(-c3cccc4cccc(C#N)c34)c(Cl)cc2c2c1ncn2[C@H]1CCN(C(=O)CC#N)[C@H](CC#N)C1)[C@@H]1CCCN1C [Example 40, 8-(8-chloro-1-((2S,4S)-1-(2-cyanoacetyl)-2-(cyanomethyl)piperidin-4-yl)-6-fluoro-4-((S)-1-((S)-1-methylpyrrolidin-2-yl)ethoxy)-1H-imidazo[4,5-c]quinolin-7-yl)-1-naphthonitrile]
- pIC50 [1]: ≥ 7.00
- pIC50 [2]: ≥ 7.00

Structure (SMILES): CN(C)C(=O)CCc1nc2c(N3CC(N(C)C)C3)nc3c(F)c(-c4nc(N)ccc4C(F)(F)F)c(CCC#N)cc3c2n1C1C2CNC1C2 (single isomer, unassigned) [Example 32a, 3-(7-(6-amino-3-(trifluoromethyl)pyridin-2-yl)-1-endo-(2-azabicyclo[2.1.1]hexan-5-yl)-8-(2-cyanoethyl)-4-(3-(dimethylamino)azetidin-1-yl)-6-fluoro-1H-imidazo[4,5-c]quinolin-2-yl)-N,N-dimethylpropanamide]
- pIC50 [1]: 5.00 to 5.30
- pIC50 [2]: 6.00 to 7.00

Structure (SMILES): CCc1nc2c(-c3ccnc(N4CCN(C)CC4)c3)nc3c(F)c(-c4cc(O)cc5ccccc45)c(CCC#N)cc3c2n1C1C2CNC1C2 (single isomer, unassigned) [Example 22a, 3-(1-((endo)-2-Azabicyclo[2.1.1]hexan-5-yl)-2-ethyl-6-fluoro-7-(3-hydroxynaphthalen-1-yl)-4-(2-(4-methylpiperazin-1-yl)pyridin-4-yl)-1H-imidazo[4,5-c]quinolin-8-yl)propanenitrile]
- pIC50 [1]: 6.00 to 7.00
- pIC50 [2]: ≥ 7.00

Structure (SMILES): CCc1nc2c(-c3ncco3)nc3c(F)c(-c4cc(O)cc5ccccc45)c(CCC#N)cc3c2n1C1C2CNC1C2 (single isomer, unassigned) [Example 20a, 3-(1-((endo)-2-Azabicyclo[2.1.1]hexan-5-yl)-2-ethyl-6-fluoro-7-(3-hydroxynaphthalen-1-yl)-4-(oxazol-2-yl)-1H-imidazo[4,5-c]quinolin-8-yl)propanenitrile]
- pIC50 [1]: 6.00 to 7.00
- pIC50 [2]: ≥ 7.00

Structure (SMILES): CN(C)C(=O)CCc1nc2c(N3CC(N(C)C)C3)nc3c(F)c(-c4cc(O)cc5ccccc45)c(Cn4cccn4)cc3c2n1[C@@H]1[C@@H]2CN[C@H]1C2 (relative stereo) [Example 9, 3-(8-((1H-pyrazol-1-yl)methyl)-1-((endo)-2-azabicyclo[2.1.1]hexan-5-yl)-4-(3-(dimethylamino)azetidin-1-yl)-6-fluoro-7-(3-hydroxynaphthalen-1-yl)-1H-imidazo[4,5-c]quinolin-2-yl)-N,N-dimethylpropanamide]
- pIC50 [1]: ≥ 7.00
- pIC50 [2]: ≥ 7.00

Structure (SMILES): CN(C)C1CN(c2nc3c(F)c(-c4cc(O)cc5ccccc45)c(CCC#N)cc3c3c2nc(CCc2ncccn2)n3C2C3CNC2C3)C1 (single isomer, unassigned) [Example 37, 3-(1-((endo)-2-azabicyclo[2.1.1]hexan-5-yl)-4-(3-(dimethylamino)azetidin-1-yl)-6-fluoro-7-(3-hydroxynaphthalen-1-yl)-2-(2-(pyrimidin-2-yl)ethyl)-1H-imidazo[4,5-c]quinolin-8-yl)propanenitrile]
- pIC50 [1]: ≥ 7.00
- pIC50 [2]: ≥ 7.00
